Results from article PMC8284453 (Antimicrobial Agents and Chemotherapy, 2021).
Values after ≈ are worked out from the molar mass of the structure shown. Where two headings read alike, the source gives them in different places.

Experiments:
[1] = test system: Enterobacterales expressing class C cephalosporinases
[2] = test system: E. cloacae ECL01 (TEM-72, ACT-1, P99AmpC); test: Broth microdilution MIC; type: cell-based; details: modal value, 5 independent determinations
[3] = test system: K. pneumoniae ATCC BAA-1705 (KPC-2); test: Broth microdilution MIC; type: cell-based; details: modal value, 5 independent determinations
[4] = test system: isogenic strains of E. coli expressing Ambler class A, B, C, and D enzymes; test: microbe, parasite or virus in culture; type: cell-based, Escherichia coli
[5] = test system: K. pneumoniae 752286 (OXA-48); test: Broth microdilution MIC; type: cell-based; details: modal value, 5 independent determinations
[6] = test system: Enterobacterales expressing class A ESBLs; test: organism not typed; type: cell-based, E. coli, K. pneumoniae; details: 25 isolates; BLI fixed at 4 μg/ml, AMC 2:1
[7] = test system: Enterobacterales expressing class A carbapenemases (KPC); test: organism not typed; type: cell-based, K. pneumoniae, E. coli, E. cloacae, Klebsiella oxytoca
[8] = 25 isolates, BLI fixed at 4 μg/ml, AMC 2:1

## C[C@@H](O)[C@H]1C(=O)N2C(C(=O)O)=C(S[C@H]3CC[S@@+]([O-])C3)S[C@H]12 [Sulopenem]
[1]; [8]
  MIC90: 2 µg/mL (≈ 5.72 µM)
[1]; C. freundii 134390 (AmpC, TEM-1)
  MIC: 0.06 µg/mL (≈ 0.172 µM)
[1]; E. aerogenes 110099 (AmpC, SHV-12)
  MIC: 0.06 µg/mL (≈ 0.172 µM)
[1]; E. aerogenes 111707 (AmpC, TEM-1)
  MIC: 0.12 µg/mL (≈ 0.343 µM)
[1]; E. aerogenes 111902 (AmpC, TEM-1)
  MIC: 0.25 µg/mL (≈ 0.715 µM)
[1]; E. coli 128 (AmpC, SHV-12, TEM-1, Toho-2)
  MIC: 0.03 µg/mL (≈ 0.0858 µM)
[1]; E. coli 3102 (AmpC, CTX-M-15, TEM-1)
  MIC: 0.03 µg/mL (≈ 0.0858 µM)
[1]; E. coli CH1 (AmpC, CTX-M-15, SHV-1, SHV-5, TEM-1)
  MIC: 0.06 µg/mL (≈ 0.172 µM)
[1]; E. coli EC469 (AmpC, SHV-12, TEM-1)
  MIC: 0.03 µg/mL (≈ 0.0858 µM)
[1]; E. coli J53 (AmpC, SHV-5, TEM-1)
  MIC: 0.06 µg/mL (≈ 0.172 µM)
[1]; E. coli SI-P026TC (CMY-2, TEM-1)
  MIC: 0.25 µg/mL (≈ 0.715 µM)
[1]; E. coli SI-PO26 (AmpC, CMY-2, TEM-1)
  MIC: 0.12 µg/mL (≈ 0.343 µM)
[1]; K. pneumoniae 129032 (MOX-2, SHV-12, TEM-1)
  MIC: 0.06 µg/mL (≈ 0.172 µM)
[1]; K. pneumoniae 178279 (AmpC, SHV-12, TEM-1)
  MIC: 0.06 µg/mL (≈ 0.172 µM)
[1]; K. pneumoniae 212027 (AmpC, FOX-5, TEM-1)
  MIC: 0.03 µg/mL (≈ 0.0858 µM)
[1]; K. pneumoniae 217917 (CMY-2, TEM-1)
  MIC: 0.06 µg/mL (≈ 0.172 µM)
[1]; K. pneumoniae 301313 (AmpC, SHV-12, TEM-1)
  MIC: 0.12 µg/mL (≈ 0.343 µM)
[1]; K. pneumoniae 398845 (CMY-2, SHV-12, TEM-1)
  MIC: 0.06 µg/mL (≈ 0.172 µM)
[1]; K. pneumoniae SI-F100 (CMY-2, SHV-5, TEM-1)
  MIC: 0.03 µg/mL (≈ 0.0858 µM)
[1]; P. mirabilis SI-F014 (AmpC, TEM-72)
  MIC: 1 µg/mL (≈ 2.86 µM)
[1]; S. marcescens 132253 (AmpC, CTX-M-3, OXA-1, SHV-12, TEM-1)
  MIC: 2 µg/mL (≈ 5.72 µM)
[1]; S. marcescens 134434 (AmpC, SHV-12, TEM-1)
  MIC: 8 µg/mL (≈ 22.9 µM)
[1]; S. marcescens 142397 (AmpC, SHV-7, TEM-1)
  MIC: 2 µg/mL (≈ 5.72 µM)
[1]; S. marcescens 156212 (AmpC, SHV-12, TEM-1)
  MIC: 1 µg/mL (≈ 2.86 µM)
[1]; S. marcescens 192478 (AmpC, SHV-12, TEM-1)
  MIC: 0.25 µg/mL (≈ 0.715 µM)
[1]; S. marcescens 218068 (AmpC, SHV-7, TEM-1)
  MIC: 4 µg/mL (≈ 11.4 µM)
[2]
  MIC: 1 µg/mL (≈ 2.86 µM)
[3]
  MIC: 32 µg/mL (≈ 91.6 µM)
[4]
  Fold increase in MIC compared to vector control: 2
[4]; E. coli expressing ACT-17 (class C), inhibitor fixed at 4 μg/ml
  Fold increase in MIC compared to vector control: 8
[4]; E. coli expressing CMY-2 (class C), inhibitor fixed at 4 μg/ml
  Fold increase in MIC compared to vector control: 8
[4]; E. coli expressing CMY-42 (class C), inhibitor fixed at 4 μg/ml
  Fold increase in MIC compared to vector control: 16
[4]; E. coli expressing CTX-M-15 (class A), inhibitor fixed at 4 μg/ml
  Fold increase in MIC compared to vector control: 4
[4]; E. coli expressing GES-5 (class A), inhibitor fixed at 4 μg/ml
  Fold increase in MIC compared to vector control: 256
[4]; E. coli expressing KPC-2 (class A), inhibitor fixed at 4 μg/ml
  Fold increase in MIC compared to vector control: 2,048
[4]; E. coli expressing KPC-3 (class A), inhibitor fixed at 4 μg/ml
  Fold increase in MIC compared to vector control: 2,048
[4]; E. coli expressing KPC-3 D179Y (class A), inhibitor fixed at 4 μg/ml
  Fold increase in MIC compared to vector control: 16
[4]; E. coli expressing NDM-1 (class B), inhibitor fixed at 4 μg/ml
  Fold increase in MIC compared to vector control: 1,024
[4]; E. coli expressing OXA-23 (class D), inhibitor fixed at 4 μg/ml
  Fold increase in MIC compared to vector control: 64
[4]; E. coli expressing OXA-48 (class D), inhibitor fixed at 4 μg/ml
  Fold increase in MIC compared to vector control: 512
[4]; E. coli expressing OXA-163 (class D), inhibitor fixed at 4 μg/ml
  Fold increase in MIC compared to vector control: 8
[4]; E. coli expressing OXA-181 (class D), inhibitor fixed at 4 μg/ml
  Fold increase in MIC compared to vector control: 1,024
[4]; E. coli expressing P99/AmpC (class C), inhibitor fixed at 4 μg/ml
  Fold increase in MIC compared to vector control: 16
[4]; E. coli expressing PER-1 (class A), inhibitor fixed at 4 μg/ml
  Fold increase in MIC compared to vector control: 8
[4]; E. coli expressing SHV-5 (class A), inhibitor fixed at 4 μg/ml
  Fold increase in MIC compared to vector control: 8
[4]; E. coli expressing SHV-12 (class A), inhibitor fixed at 4 μg/ml
  Fold increase in MIC compared to vector control: 4
[4]; E. coli expressing VEB-9 (class A), inhibitor fixed at 4 μg/ml
  Fold increase in MIC compared to vector control: 4
[5]
  MIC: 16 µg/mL (≈ 45.8 µM)
[6]
  MIC50: 0.12 µg/mL (≈ 0.343 µM)
  MIC90: 0.5 µg/mL (≈ 1.43 µM)
  MIC range: 0.03 to 1 µg/mL
[7]; [8]
  MIC50: 32 µg/mL (≈ 91.6 µM)
[7]; 25 isolates, BLI fixed at 4 μg/ml, AMC 2:1, listed as sulopenem
  MIC90: ≥ 64 µg/mL
[7]; E. cloacae 847426 (KPC)
  MIC: ≥ 64 µg/mL
[7]; E. cloacae 847429 (KPC)
  MIC: ≥ 64 µg/mL
[7]; E. cloacae OIMGH49 (p99 AmpC, ACT-2, KPC-2, TEM-1)
  MIC: ≥ 64 µg/mL
